The term fraction unbound denotes the share of the substance not bound to proteins or other matrix.

Series [1] concerns the target T1, SERT (serotonin release) (Rattus norvegicus, UniProt P31652).
T1 construct: from tissue; host or cells: rat frontal cortex, crude synaptosomes
The experiment in a line: Serotonin release filtration assay in rat cortex synaptosomes. It counts as cell-based. As to the method:
Methods and Procedure—Release: The potency of the disclosed compounds for stimulating dopamine (DA) release was measured by an endpoint release filtration assay in a 96-well format using rat synaptosomes, essentially as described by Sandtner et al., Mol. Pharmacol., 2016; 89(1):165-75, and Baumann et al., Neuropsychopharmacol., 2013; 38:552-562, with some variations.
One male rat was sacrificed and striatum/cortex regions were dissected over ice. The striatum portions were weighed and put in a glass tube for homogenization, containing ice-cold 0.32 M sucrose (dilution 1:24 w/v), while the frontal cortex tissue was diluted in ice-cold 0.32 M sucrose, 1:20 w/v. Tissues were homogenized and centrifuged for 10 mins at 1000×g. The two supernatants from striatum and cortex (crude synaptosomes) were retained on ice until use.
Test compounds were then serially diluted 1:4 in neat DMSO as concentration-response curves (CRC) of 11 points. To each well of a 2-mL 96 deep-well plate (Whatman UNIPLATE 96 well) were added: 2 μL of CRC of test compounds or 2 μL of DMSO (no-release condition) or 2 μL of MDMA 10 mM solution (final 50 μM, for maximal release), followed by 200 μL/well of complete Krebs-phosphate buffer (126 mM NaCl, 2.4 mM KCl, 0.83 mM CaCl2, 0.8 mM MgCl2, 0.5 mM KH2PO4, 0.5 mM Na2SO4, 11.1 mM Glucose, 0.05 mM pargyline, 1 mg/mL ascorbic acid, freshly added, pH 7.4), containing 1 μM reserpine to block vesicular uptake of substrate. Desipramine (100 nM) and citalopram (100 nM) were also added to the release assay buffer in order to inhibit NET and SERT uptake, respectively. The final compound dilution, then, was 1:200 in 0.5% DMSO.
The raw data (cpm) from residual radioactivity onto the filter were elaborated for the determination of pEC50/EC50 values. Specifically, the compound effect was expressed as the percent of maximal release obtained with 50 μM MDMA (100% release) in comparison to vehicle (0.5% DMSO, 0% release). Both MDMA and D-amphetamine in CRC were used as internal controls in each release experiment. In each plate, for both 0% and 100% of release, the signal window is monitored performing Z′ calculations using raw data of four replicates.
Synaptosomes were then loaded with ^3H-5HT for 60 minutes at RT. After dispensing loaded synaptosomes onto a compound plate (200 μL/well), the release reaction proceeded for an additional 15 minutes. Stop by filtration, counting, and data elaboration were performed as described for DA release.

Series [2] is described as follows: Plasma protein binding by equilibrium dialysis, human plasma. Format: in vitro ADME. As to conditions: pH 7.4. As to the method: Methods and Procedure: This study was performed in agreement with the previously described procedures to assure data integrity and adherence to GLP standards. Plasma protein binding and blood tissue binding of test items (0.5 μM) was determined using biological samples from male Sprague Dawley (SD) rats and humans. […] Dexamethasone was used as a control for lung tissue binding. Various biological samples were spiked with test compounds according to the methods that follow.
Preparation of plasma or blood samples: An appropriate amount of test compound was dissolved in DMSO to yield a 10 mM solution. Further dilutions, to obtain 50 μM working solutions (WS), were then prepared using 50% acetonitrile in Milli-Q water. These 100×WS were used to spike plasma or blood to obtain a final concentration of 0.5 μM. From this initial spiking solution, control samples (n=3), referred to as T=0, were immediately extracted and used to calculate the recovery of the test item.
An equilibrium dialysis method was performed to determine protein binding in the various biological samples described herein. Materials were prepared and methods were in accordance with the following procedures. […]
Dialysis buffer was prepared by dissolving Na2HPO4 8.69 g, KH2PO4 1.90 g, and NaCl 4.11 g in 1 L of MilliQ water, and adjusting the pH to 7.4 with H3PO4. […] In order to control the integrity of the membrane after the dialysis process, the presence of protein was assessed in the buffer compartment. […]
Samples were analyzed in a LC-MS/MS system using an analytical method to monitor the compound to internal standard peak area ratios as representative of the compound concentrations. Alternatively, samples were analyzed by RapidFire.
Protein binding in plasma, blood, brain, and lung tissue samples were determined with the following formula: Afu=Buffer/x, wherein “x” may be plasma, blood, brain, or lung, and “Afu” is the apparent fraction unbound, and the other variables refer to the analyte/internal standard ratio determined in their specific compartment (buffer, plasma, blood, brain homogenate, and lung homogenate); […]

The mark [3] stands for this setting: rat cortex synaptosomes, % of release by 50 μM MDMA, read-out: SERT release pEC50 (converted).

Where two headings read alike, the source gives them in different places.

T1 sequence (P31652 whole entry): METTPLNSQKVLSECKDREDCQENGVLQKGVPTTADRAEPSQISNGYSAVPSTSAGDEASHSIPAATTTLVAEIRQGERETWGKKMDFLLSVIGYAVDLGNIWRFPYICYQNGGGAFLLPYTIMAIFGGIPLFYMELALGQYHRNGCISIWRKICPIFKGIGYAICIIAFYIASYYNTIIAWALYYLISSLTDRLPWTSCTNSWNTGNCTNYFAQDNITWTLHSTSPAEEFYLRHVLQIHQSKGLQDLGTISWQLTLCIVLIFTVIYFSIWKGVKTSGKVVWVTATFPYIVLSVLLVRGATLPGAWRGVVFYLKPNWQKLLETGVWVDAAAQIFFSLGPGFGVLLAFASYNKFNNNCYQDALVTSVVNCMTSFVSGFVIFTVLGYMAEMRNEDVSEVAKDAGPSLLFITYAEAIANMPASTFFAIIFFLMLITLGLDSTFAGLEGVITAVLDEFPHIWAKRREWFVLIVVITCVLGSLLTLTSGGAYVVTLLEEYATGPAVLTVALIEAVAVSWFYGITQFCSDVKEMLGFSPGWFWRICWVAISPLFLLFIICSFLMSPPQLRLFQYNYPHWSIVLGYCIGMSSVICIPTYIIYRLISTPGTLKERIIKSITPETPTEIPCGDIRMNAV

In the case of `Clc1ccc(C23CNC(CO2)C3)cc1Cl` (stereo not shown) [522A, 1-(3,4-dichlorophenyl)-2-oxa-5-azabicyclo[2.2.1]heptane], the EC50 in series [1] (setting [3]) was 19.1 nM; in series [1] (serotonin release, read-out: EC50 to influence SER release), 22 nM. The same compound yielded a free fraction (fraction unbound) at 5 h, 0.5 µM in series [2] of 0.021.

Consider `Clc1ccc([C@@]23CN[C@@H](CO2)C3)cc1Cl` (single isomer, unassigned) [518A], for which the EC50 in series [1] (setting [3]) was 17 nM. In series [2], this compound had a fraction unbound at 5 h, 0.5 µM of 0.0143.

As to `Clc1ccc([C@]23CN[C@H](CO2)C3)cc1Cl` (single isomer, unassigned) [516A], the EC50 in series [1] (setting [3]) is 18.2 nM.

For the compound `CNC(C)Cc1ccc2c(c1)OCO2` (stereo not shown) [MDMA, reference compound], the fraction unbound at 5 h, 0.5 µM in series [2] is more than 0.5.

For the origin of these results see US12595269B2, “Morpholine-like monoamine releasers” (Solvonis Therapeutics Ireland Holdings Limited, priority 2022, dated 2026).
